Experimental data taken from US7361783B2, “(2S)-2-ethylphenylpropionic acid derivative” (Kyorin Pharmaceutical Co., Ltd., priority 2002, dated 2008).

Biological target: T1, human peroxisome proliferator-activated receptor (PPAR) α (Homo sapiens, UniProt Q07869)
T1 construct: expressed in transfected cells; host or cells: CHO cells
T1 sequence (Q07869 239-466 limits assumed): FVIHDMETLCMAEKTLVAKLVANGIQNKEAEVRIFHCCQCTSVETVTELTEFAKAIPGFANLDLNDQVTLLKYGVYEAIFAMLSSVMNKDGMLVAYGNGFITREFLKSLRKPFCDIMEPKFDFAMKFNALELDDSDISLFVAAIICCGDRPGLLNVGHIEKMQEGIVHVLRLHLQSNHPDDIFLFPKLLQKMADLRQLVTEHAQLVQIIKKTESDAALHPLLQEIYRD
Experiment: Test of transcriptional activation on human PPARα (luciferase reporter, transfected CHO cells)
Format: cell-based
Settings: CHO cells cotransfected with yeast DNA-binding domain/human PPARα ligand-binding domain fusion and reporter plasmid; luciferase after 24 hours, corrected with Renilla internal standard
Procedure: Test of Transcriptional Activation on Human Peroxisome Proliferator-activated Receptor (PPAR) α
The CHO cells were cultured in a Dulbecco-modified Eagle's medium containing 10% delipid fetal calf serum (FCS/DMEM). To these cells were cotransfected receptor plasmid and its reporter plasmid (STRATAGENE Corp.) that express fused protein of DNA-binding domain being transcription factor of yeast with ligand-binding domain of human PPARα (Biochemistry, 1993, 32, 5598), and luciferase plasmid of Renilla (Promega Corp.) for internal standard, using lipofectamine. Thereafter, testing compound or (8S)-HETE being a control compound was added in the 10% SFCS/DMEM and both luciferase activities were measured after 24 hours, which were corrected with internal standard.

**Q.** For `CCCCC/C=C\C/C=C\C=C\[C@@H](O)C/C=C\CCCC(=O)O` [(8S)-HETE, reference compound], which EC50 is on record?
**A.** The EC50 was 1300 nM.

**Q.** With `CC[C@@H](Cc1ccc(OC)c(C(=O)NCc2ccc(Oc3ccc(F)c(F)c3)cc2)c1)C(=O)O` [Example 9, (2S)-2-{[3-(N-{[4-(3,4-Difluorophenoxy)phenyl]methyl}carbamoyl)-4-methoxyphenyl]methyl}butyric acid] as the compound, how does the EC50 read?
**A.** The EC50 was 1.6 nM.

**Q.** Which EC50 does the source give for `CC[C@@H](Cc1ccc(OC)c(C(=O)NCc2ccc(Oc3cc(F)cc(F)c3)cc2)c1)C(=O)O` [Example 10, (2S)-2-{[3-(N-{[4-(3,5-Difluorophenoxy)phenyl]methyl}carbamoyl)-4-methoxyphenyl]methyl}butyric acid] here?
**A.** The EC50 was 2.9 nM.

**Q.** With `CC[C@@H](Cc1ccc(OC)c(C(=O)NCc2ccc(Oc3cc(F)c(F)c(F)c3)cc2)c1)C(=O)OC` [Example 16, Methyl (2S)-2-{[4-methoxy-3-(N-{[4-(3,4,5-trifluorophenoxy)phenyl]methyl}carbamoyl)phenyl]methyl}butyrate] as the compound, how does the EC50 read?
**A.** Its EC50 is 2.3 nM.

System: male Beagle dog
Experiment: Test of lipid-lowering effect in Beagle dog
Format: in vivo
Settings: serum; oral 0.03 mg/kg/day once a day for 14 days; before vs after administration
Procedure: Test of Lipid-lowering Effect
To a 27-month old male Beagle dog (HRA Beagle; Convance Research Products Inc.) was orally administered testing compound (0.3 mg/mL) in weak aqueous alkali solution sealed in a gelatin capsule once a day for continuous 14 days (0.03 mg/kg/day). For the feed during the period of administration, standard diet (Canine diet, PMI nutrition International Inc.) was used. Blood was collected before start of administration and after administration for 14 days, and total cholesterol value in serum and triglyceride value were measured by enzymic method [Cholesterol E-Test Wako (Wako Pure Chemical Industries,Ltd.), Liquitec TGII reagent 1, 2 (Rosch) and standard serum for measurement of lipid (Rosch) were used]. The decreasing rates of total cholesterol value and triglyceride value were calculated, respectively, according to following calculation formula. Decreasing rate (%)=(Measured value before administration−Measured value after administration)/Measured value before administration×100 [Result]

**Q.** With `CC[C@@H](Cc1ccc(OC)c(C(=O)NCc2ccc(Oc3cc(F)cc(F)c3)cc2)c1)C(=O)O` [Example 10, (2S)-2-{[3-(N-{[4-(3,5-Difluorophenoxy)phenyl]methyl}carbamoyl)-4-methoxyphenyl]methyl}butyric acid] as the compound, how does the “Decreasing rate Total cholesterol” value read?
**A.** Its value is 28%.

**Q.** What about the “Decreasing rate Triglyceride” value of the same compound?
**A.** The value was 50%.

System: not given
Experiment: not given
Settings: not given

**Q.** Which melting point does the source give for `CC[C@@H](Cc1ccc(OC)c(C(=O)NCc2ccc(Oc3ccc(F)c(F)c3)cc2)c1)C(=O)O` [Example 9, (2S)-2-{[3-(N-{[4-(3,4-Difluorophenoxy)phenyl]methyl}carbamoyl)-4-methoxyphenyl]methyl}butyric acid] here?
**A.** The melting point was 118 to 120 °C.

**Q.** For `CC[C@@H](Cc1ccc(OC)c(C(=O)NCc2ccc(Oc3cc(F)cc(F)c3)cc2)c1)C(=O)O` [Example 10, (2S)-2-{[3-(N-{[4-(3,5-Difluorophenoxy)phenyl]methyl}carbamoyl)-4-methoxyphenyl]methyl}butyric acid], which melting point is on record?
**A.** The melting point was 140 to 142 °C.

**Q.** Which melting point does the source give for `CC[C@@H](Cc1ccc(OC)c(C(=O)NCc2ccc(Oc3cccc(F)c3F)cc2)c1)C(=O)O` [Example 11, (2S)-2-{[3-(N-{[4-(2,3-Difluorophenoxy)phenyl]methyl}carbamoyl)-4-methoxyphenyl]methyl}butyric acid] here?
**A.** Its melting point is 93 to 95 °C.

**Q.** For `CC[C@@H](Cc1ccc(OC)c(C(=O)NCc2ccc(Oc3cc(F)ccc3F)cc2)c1)C(=O)O` [Example 13, (2S)-2-{[3-(N-{[4-(2,5-Difluorophenoxy)phenyl]methyl}carbamoyl)-4-methoxyphenyl]methyl}butyric acid], which melting point is on record?
**A.** The melting point was 116 to 118 °C.

**Q.** For `CC[C@@H](Cc1ccc(OC)c(C(=O)NCc2ccc(Oc3c(F)cccc3F)cc2)c1)C(=O)O` [Example 14, (2S)-2-{[3-(N-{[4-(2,6-Difluorophenoxy)phenyl]methyl}carbamoyl)-4-methoxyphenyl]methyl}butyric acid], which melting point is on record?
**A.** The melting point was 106 to 108 °C.

**Q.** With `CC[C@@H](Cc1ccc(OC)c(C(=O)NCc2ccc(Oc3cc(C(F)(F)F)cc(C(F)(F)F)c3)cc2)c1)C(=O)O` [Example 15, (2S)-2-({3-[N-({4-[3,5-Bis(trifluoromethyl)phenoxy]phenyl}methyl)carbamoyl]-4-methoxyphenyl}methyl)butyric acid] as the compound, how does the melting point read?
**A.** The melting point was 125 to 127 °C.

**Q.** With `CC[C@@H](Cc1ccc(OC)c(C(=O)NCc2ccc(Oc3cc(F)c(F)c(F)c3)cc2)c1)C(=O)O` [Example 17, (2S)-2-{[4-Methoxy-3-(N-{[4-(3,4,5-trifluorophenoxy)phenyl]methyl}carbamoyl)phenyl]methyl}butyric acid] as the compound, how does the melting point read?
**A.** The melting point was 133 to 135 °C.

**Q.** Which melting point does the source give for `CC[C@@H](Cc1ccc(OC)c(C(=O)NCc2ccc(Oc3cc(Cl)cc(Cl)c3)cc2)c1)C(=O)O` [Example 30, (2S)-2-{[4-Methoxy-3-(N-{[4-(3,5-dichlorophenoxy)phenyl]methyl}carbamoyl)phenyl]methyl}butyric Acid] here?
**A.** The melting point was 145 to 148 °C.

**Q.** With `CC[C@@H](Cc1ccc(OC)c(C(=O)NCc2ccc(Oc3ccc(Cl)c(Cl)c3)cc2)c1)C(=O)O` [Example 31, (2S)-2-{[4-Methoxy-3-(N-{[4-(3,4-dichlorophenoxy)phenyl]methyl}carbamoyl)phenyl]methyl}butyric acid] as the compound, how does the melting point read?
**A.** The melting point was 139 to 141 °C.

**Q.** For `CC[C@@H](Cc1ccc(OC)c(C(=O)NCc2ccc(Oc3ccc(Cl)c(F)c3)cc2)c1)C(=O)O` [Example 32, (2S)-2-{[4-Methoxy-3-(N-{[4-(4-chloro-3-fluorophenoxy)phenyl]methyl}carbamoyl)phenyl]methyl}butyric acid], which melting point is on record?
**A.** Its melting point is 117 to 118 °C.

**Q.** With `CC[C@@H](Cc1ccc(OC)c(C(=O)NCc2ccc(Oc3ccc(Br)c(Cl)c3)cc2)c1)C(=O)O` [Example 33, (2S)-2-{[4-Methoxy-3-(N-{[4-(4-bromo-3-chlorophenoxy)phenyl]methyl}carbamoyl)phenyl]methyl}butyric acid] as the compound, how does the melting point read?
**A.** Its melting point is 140 to 142 °C.

**Q.** For `CC[C@@H](Cc1ccc(OC)c(C(=O)NCc2ccc(Oc3ccc(Cl)c(C(F)(F)F)c3)cc2)c1)C(=O)O` [Example 34, (2S)-2-{[4-Methoxy-3-(N-{[4-(4-chloro-3-trifluoromethylphenoxy)phenyl]methyl}carbamoyl)phenyl]methyl}butyric acid], which melting point is on record?
**A.** The melting point was 141 to 142 °C.

**Q.** Which melting point does the source give for `CC[C@@H](Cc1ccc(OC)c(C(=O)NCc2ccc(Oc3cc(F)cc(C(F)(F)F)c3)cc2)c1)C(=O)O` [Example 35, (2S)-2-{[4-Methoxy-3-(N-{[4-(3-fluoro-5-trifluoromethylphenoxy)phenyl]methyl}carbamoyl)phenyl]methyl}butyric acid] here?
**A.** Its melting point is 125 to 128 °C.
